For data set [1], the target named is Voltage-gated inwardly rectifying potassium channel KCNH2 (Homo sapiens, UniProt Q12809). The data set can be described thus: Inhibition of human ERG by [35S]-MK499 displacement or iKr channel assay.
Data set [2] deals with T1, Tyrosine-protein kinase BTK (Homo sapiens, UniProt Q06187). The data set is described as follows: Inhibition of recombinant full-length His6-tagged BTK (unknown origin) expressed in baculovirus infected Sf9 cells using biotinylated A5 peptide as substrate preincubated for 60 mins followed by substrate addition measured after 120 mins by LANCE TR-FRET assay. In general terms: TR-FRET usually uses a lanthanide donor and a delayed reading to cut background.

Data set [3] deals with T1, Tyrosine-protein kinase BTK. The data set is described as follows: Inhibition of BTK in human PBMC assessed as reduction in anti-IgM-induced MIP1beta.
Data set [4] deals with Tyrosine-protein kinase Blk (Homo sapiens, UniProt P51451). The data set can be described thus: Inhibition of BLK (unknown origin).
The species named for data set [5] is Homo sapiens. The data set can be described thus: Selectivity ratio of IC50 for BLK (unknown origin) to IC50 for BTK (unknown origin).
In data set [6] the target is T2, Cytoplasmic tyrosine-protein kinase BMX (Homo sapiens, UniProt P51813).
T2 sequence (P51813 whole entry): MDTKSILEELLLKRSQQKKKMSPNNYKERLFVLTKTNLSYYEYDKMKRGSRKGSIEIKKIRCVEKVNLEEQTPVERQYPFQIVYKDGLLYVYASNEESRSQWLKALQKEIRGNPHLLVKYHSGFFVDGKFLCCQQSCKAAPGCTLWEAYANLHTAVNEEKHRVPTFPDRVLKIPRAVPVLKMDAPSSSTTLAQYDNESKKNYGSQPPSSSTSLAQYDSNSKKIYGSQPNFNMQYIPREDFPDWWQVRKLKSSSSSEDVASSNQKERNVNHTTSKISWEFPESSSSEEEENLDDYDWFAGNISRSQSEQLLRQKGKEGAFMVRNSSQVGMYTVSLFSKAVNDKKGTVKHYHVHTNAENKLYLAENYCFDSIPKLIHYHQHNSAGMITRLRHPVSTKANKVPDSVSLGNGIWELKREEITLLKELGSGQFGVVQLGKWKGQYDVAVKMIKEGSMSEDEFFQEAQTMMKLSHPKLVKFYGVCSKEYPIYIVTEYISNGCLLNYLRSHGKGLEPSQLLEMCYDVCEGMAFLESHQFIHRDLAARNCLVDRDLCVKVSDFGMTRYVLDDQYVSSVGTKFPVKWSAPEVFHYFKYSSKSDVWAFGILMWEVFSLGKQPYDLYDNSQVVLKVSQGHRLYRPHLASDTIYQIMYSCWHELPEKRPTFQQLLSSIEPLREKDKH
The data set is described as follows: Inhibition of BMX (unknown origin).

The species entered for data set [7] is Homo sapiens. The data set can be described thus: Selectivity ratio of IC50 for BMX (unknown origin) to IC50 for BTK (unknown origin).
For data set [8], the target named is Tyrosine-protein kinase CSK (Homo sapiens, UniProt P41240). The data set is described as follows: Inhibition of CSK (unknown origin).
Data set [9] is filed under the species Homo sapiens. The data set is described as follows: Selectivity ratio of IC50 for CSK (unknown origin) to IC50 for BTK (unknown origin).
For data set [10], the target named is Receptor tyrosine-protein kinase erbB-4 (Homo sapiens, UniProt Q15303). The data set is described as follows: Inhibition of ERBB4 (unknown origin).
The species named for data set [11] is Homo sapiens. The data set is described as follows: Selectivity ratio of IC50 for ERBB4 (unknown origin) to IC50 for BTK (unknown origin).
For data set [12], the target named is Tyrosine-protein kinase Fgr (Homo sapiens, UniProt P09769). The data set can be described thus: Inhibition of FGR (unknown origin).
For data set [13], the species on record is Homo sapiens. The data set can be described thus: Selectivity ratio of IC50 for FGR (unknown origin) to IC50 for BTK (unknown origin).
Data set [14] has as its target Tyrosine-protein kinase FRK (Homo sapiens, UniProt P42685). The data set is described as follows: Inhibition of FRK (unknown origin).
For data set [15], the species on record is Homo sapiens. The data set is described as follows: Selectivity ratio of IC50 for FRK (unknown origin) to IC50 for BTK (unknown origin).
Data set [16] has as its target Tyrosine-protein kinase Fyn (Homo sapiens, UniProt P06241). The data set is described as follows: Inhibition of FYN (unknown origin).
The species named for data set [17] is Homo sapiens. The data set can be described thus: Selectivity ratio of IC50 for FYN (unknown origin) to IC50 for BTK (unknown origin).
In data set [18] the target is Tyrosine-protein kinase Lck (Homo sapiens, UniProt P06239). The data set is described as follows: Inhibition of LCK (unknown origin).
The species named for data set [19] is Homo sapiens. The data set can be described thus: Selectivity ratio of IC50 for LCK (unknown origin) to IC50 for BTK (unknown origin).
Data set [20] deals with Tyrosine-protein kinase Lyn (Homo sapiens, UniProt P07948). The data set is described as follows: Inhibition of LYNB (unknown origin).
The species entered for data set [21] is Homo sapiens. The data set is described as follows: Selectivity ratio of IC50 for LYNB (unknown origin) to IC50 for BTK (unknown origin).
Data set [22] addresses Protein-tyrosine kinase 6 (Homo sapiens, UniProt Q13882). The data set is described as follows: Inhibition of PTK6 (unknown origin).
The species named for data set [23] is Homo sapiens. The data set is described as follows: Selectivity ratio of IC50 for PTK6 (unknown origin) to IC50 for BTK (unknown origin).
Data set [24] has as its target Proto-oncogene tyrosine-protein kinase Src (Homo sapiens, UniProt P12931). The data set is described as follows: Inhibition of SRC (unknown origin).
The species entered for data set [25] is Homo sapiens. The data set is described as follows: Selectivity ratio of IC50 for SRC (unknown origin) to IC50 for BTK (unknown origin).
The target in data set [26] is Tyrosine-protein kinase Srms (Homo sapiens, UniProt Q9H3Y6). The data set can be described thus: Inhibition of SRMS (unknown origin).
Data set [27] is filed under the species Homo sapiens. The data set can be described thus: Selectivity ratio of IC50 for SRMS (unknown origin) to IC50 for BTK (unknown origin).
The target in data set [28] is T3, Tyrosine-protein kinase Tec (Homo sapiens, UniProt P42680).
T3 sequence (P42680 whole entry): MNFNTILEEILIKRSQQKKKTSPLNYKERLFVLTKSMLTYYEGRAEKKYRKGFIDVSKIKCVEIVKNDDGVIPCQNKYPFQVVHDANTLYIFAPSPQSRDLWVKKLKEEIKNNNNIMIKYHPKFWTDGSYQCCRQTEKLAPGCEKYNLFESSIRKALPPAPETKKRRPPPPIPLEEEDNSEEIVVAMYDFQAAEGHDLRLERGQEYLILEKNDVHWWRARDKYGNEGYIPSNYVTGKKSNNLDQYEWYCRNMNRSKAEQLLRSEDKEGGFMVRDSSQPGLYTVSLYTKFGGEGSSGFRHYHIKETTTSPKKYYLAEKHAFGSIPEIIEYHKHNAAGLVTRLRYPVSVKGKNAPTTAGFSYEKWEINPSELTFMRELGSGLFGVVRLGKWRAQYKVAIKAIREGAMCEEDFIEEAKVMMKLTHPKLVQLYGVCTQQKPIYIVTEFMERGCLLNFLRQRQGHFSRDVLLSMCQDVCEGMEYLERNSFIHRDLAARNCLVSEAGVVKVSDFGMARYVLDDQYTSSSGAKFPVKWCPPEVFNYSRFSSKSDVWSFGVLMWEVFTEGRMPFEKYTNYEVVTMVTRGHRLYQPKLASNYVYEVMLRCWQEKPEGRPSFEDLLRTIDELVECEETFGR
The data set is described as follows: Inhibition of TEC (unknown origin).

Data set [29] is filed under the species Homo sapiens. The data set is described as follows: Selectivity ratio of IC50 for TEC (unknown origin) to IC50 for BTK (unknown origin).
The target of data set [30] is T4, Tyrosine-protein kinase TXK (Homo sapiens, UniProt P42681).
T4 sequence (P42681 whole entry): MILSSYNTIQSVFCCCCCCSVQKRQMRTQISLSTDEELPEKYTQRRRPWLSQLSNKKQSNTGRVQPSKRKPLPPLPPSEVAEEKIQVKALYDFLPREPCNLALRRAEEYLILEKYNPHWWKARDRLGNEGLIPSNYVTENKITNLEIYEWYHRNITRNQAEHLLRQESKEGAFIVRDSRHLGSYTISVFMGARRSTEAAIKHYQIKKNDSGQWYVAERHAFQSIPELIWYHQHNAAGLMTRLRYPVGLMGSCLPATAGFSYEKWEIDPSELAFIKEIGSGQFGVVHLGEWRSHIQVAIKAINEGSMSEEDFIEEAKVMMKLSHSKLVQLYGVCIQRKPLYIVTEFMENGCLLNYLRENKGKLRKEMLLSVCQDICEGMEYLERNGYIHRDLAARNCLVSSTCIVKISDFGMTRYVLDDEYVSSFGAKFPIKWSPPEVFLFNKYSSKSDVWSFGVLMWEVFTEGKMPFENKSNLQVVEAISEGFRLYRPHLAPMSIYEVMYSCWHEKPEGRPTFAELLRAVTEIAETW
The data set can be described thus: Inhibition of TXK (unknown origin).

Data set [31] is filed under the species Homo sapiens. The data set can be described thus: Selectivity ratio of IC50 for TXK (unknown origin) to IC50 for BTK (unknown origin).
Data set [32] concerns the target Tyrosine-protein kinase Yes (Homo sapiens, UniProt P07947). The data set can be described thus: Inhibition of YES1 (unknown origin).
The species entered for data set [33] is Homo sapiens. The data set is described as follows: Selectivity ratio of IC50 for YES1 (unknown origin) to IC50 for BTK (unknown origin).
Data set [34] can be described thus: Total clearance in rat plasma at 10 mg/kg. The format is ADME, organism-based.
Data set [35] in a line: Half life in rat at 10 mg/kg. It counts as ADME, organism-based. To be noted: in vivo.
The nature of data set [36]: Oral bioavailability in rat at 10 mg/kg. To be noted: in vivo. The format is ADME, organism-based.
Data set [37] in a line: Total clearance in dog plasma at 2 mg/kg. It counts as ADME, organism-based, Canis lupus familiaris.
Data set [38] in a line: Half life in dog at 2 mg/kg. The format is ADME, organism-based, Canis lupus familiaris. To be noted: in vivo.
Data set [39] is described as follows: Oral bioavailability in dog at 2 mg/kg. The format is ADME, organism-based, Canis lupus familiaris. The following applies: in vivo.

T1 sequence (Q06187 whole entry): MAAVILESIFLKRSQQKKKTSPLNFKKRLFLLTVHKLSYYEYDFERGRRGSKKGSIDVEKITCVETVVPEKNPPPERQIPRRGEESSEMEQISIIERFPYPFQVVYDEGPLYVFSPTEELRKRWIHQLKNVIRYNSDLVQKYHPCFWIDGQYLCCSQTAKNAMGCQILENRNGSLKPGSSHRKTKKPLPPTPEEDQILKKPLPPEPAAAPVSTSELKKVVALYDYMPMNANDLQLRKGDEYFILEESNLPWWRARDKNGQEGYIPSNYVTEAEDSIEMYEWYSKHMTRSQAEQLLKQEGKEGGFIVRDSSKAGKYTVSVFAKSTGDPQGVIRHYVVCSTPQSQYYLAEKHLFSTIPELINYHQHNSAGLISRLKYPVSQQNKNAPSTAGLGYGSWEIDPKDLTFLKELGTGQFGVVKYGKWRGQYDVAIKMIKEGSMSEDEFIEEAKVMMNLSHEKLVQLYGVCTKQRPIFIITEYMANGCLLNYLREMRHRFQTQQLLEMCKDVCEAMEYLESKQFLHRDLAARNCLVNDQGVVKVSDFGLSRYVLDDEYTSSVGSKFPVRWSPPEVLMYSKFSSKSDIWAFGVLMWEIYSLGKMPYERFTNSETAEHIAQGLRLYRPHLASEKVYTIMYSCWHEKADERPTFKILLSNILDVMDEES
Sequence of Voltage-gated inwardly rectifying potassium channel KCNH2 (Q12809 whole entry): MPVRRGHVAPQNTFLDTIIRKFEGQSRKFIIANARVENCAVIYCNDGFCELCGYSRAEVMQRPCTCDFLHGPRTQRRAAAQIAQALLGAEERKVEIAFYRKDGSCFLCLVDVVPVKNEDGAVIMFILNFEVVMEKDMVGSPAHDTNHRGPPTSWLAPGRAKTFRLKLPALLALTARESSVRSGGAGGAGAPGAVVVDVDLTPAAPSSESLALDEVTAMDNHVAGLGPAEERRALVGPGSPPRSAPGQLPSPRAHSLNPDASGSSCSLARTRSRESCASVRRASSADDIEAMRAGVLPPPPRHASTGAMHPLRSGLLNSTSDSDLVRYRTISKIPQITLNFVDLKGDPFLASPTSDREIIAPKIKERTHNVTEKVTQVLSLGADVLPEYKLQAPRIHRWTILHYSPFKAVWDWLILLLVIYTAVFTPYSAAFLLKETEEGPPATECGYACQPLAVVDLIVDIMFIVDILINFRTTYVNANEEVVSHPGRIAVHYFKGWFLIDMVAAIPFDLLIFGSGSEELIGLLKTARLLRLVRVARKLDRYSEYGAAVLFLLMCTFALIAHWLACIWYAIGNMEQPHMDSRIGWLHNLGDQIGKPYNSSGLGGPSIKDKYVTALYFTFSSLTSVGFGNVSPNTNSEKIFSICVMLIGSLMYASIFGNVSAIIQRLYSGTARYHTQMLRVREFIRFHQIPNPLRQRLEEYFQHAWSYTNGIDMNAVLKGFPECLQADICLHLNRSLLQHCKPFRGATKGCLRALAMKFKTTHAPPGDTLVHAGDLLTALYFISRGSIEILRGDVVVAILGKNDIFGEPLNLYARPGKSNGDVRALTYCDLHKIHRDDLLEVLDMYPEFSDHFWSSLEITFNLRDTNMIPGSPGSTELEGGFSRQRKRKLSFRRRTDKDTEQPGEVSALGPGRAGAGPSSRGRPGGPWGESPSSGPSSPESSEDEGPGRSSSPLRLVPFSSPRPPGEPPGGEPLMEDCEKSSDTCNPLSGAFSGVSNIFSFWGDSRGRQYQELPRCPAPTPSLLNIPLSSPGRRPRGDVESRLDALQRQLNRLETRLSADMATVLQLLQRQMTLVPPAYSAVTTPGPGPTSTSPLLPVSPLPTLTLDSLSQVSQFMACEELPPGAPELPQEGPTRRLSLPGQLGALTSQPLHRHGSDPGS
Sequence of Protein-tyrosine kinase 6 (Q13882 whole entry): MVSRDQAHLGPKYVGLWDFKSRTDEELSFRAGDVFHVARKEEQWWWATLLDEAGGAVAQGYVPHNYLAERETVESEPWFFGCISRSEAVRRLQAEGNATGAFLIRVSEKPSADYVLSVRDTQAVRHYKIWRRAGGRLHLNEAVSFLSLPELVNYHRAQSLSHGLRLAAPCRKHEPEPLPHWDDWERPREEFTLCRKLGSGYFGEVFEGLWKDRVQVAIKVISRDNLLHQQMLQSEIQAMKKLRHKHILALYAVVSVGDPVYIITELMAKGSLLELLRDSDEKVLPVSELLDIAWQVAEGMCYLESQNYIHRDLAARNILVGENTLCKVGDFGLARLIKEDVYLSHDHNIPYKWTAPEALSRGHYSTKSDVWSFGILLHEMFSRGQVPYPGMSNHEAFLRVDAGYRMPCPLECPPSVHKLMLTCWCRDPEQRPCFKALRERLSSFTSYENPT
Sequence of Tyrosine-protein kinase Fyn (P06241 whole entry): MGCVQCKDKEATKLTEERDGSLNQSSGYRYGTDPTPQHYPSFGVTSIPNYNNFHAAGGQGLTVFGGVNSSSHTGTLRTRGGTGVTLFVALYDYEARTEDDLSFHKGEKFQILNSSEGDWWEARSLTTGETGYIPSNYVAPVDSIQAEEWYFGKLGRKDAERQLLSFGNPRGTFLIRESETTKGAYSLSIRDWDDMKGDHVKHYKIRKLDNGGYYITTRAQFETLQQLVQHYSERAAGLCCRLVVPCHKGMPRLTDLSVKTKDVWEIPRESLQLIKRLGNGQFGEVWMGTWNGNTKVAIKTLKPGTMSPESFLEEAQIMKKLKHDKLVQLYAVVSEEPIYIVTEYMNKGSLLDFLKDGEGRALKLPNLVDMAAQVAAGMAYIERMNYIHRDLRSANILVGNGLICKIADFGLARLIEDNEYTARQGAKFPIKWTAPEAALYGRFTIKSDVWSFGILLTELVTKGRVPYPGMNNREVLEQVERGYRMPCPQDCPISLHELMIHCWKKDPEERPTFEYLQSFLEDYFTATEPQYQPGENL
Sequence of Tyrosine-protein kinase Fgr (P09769 whole entry): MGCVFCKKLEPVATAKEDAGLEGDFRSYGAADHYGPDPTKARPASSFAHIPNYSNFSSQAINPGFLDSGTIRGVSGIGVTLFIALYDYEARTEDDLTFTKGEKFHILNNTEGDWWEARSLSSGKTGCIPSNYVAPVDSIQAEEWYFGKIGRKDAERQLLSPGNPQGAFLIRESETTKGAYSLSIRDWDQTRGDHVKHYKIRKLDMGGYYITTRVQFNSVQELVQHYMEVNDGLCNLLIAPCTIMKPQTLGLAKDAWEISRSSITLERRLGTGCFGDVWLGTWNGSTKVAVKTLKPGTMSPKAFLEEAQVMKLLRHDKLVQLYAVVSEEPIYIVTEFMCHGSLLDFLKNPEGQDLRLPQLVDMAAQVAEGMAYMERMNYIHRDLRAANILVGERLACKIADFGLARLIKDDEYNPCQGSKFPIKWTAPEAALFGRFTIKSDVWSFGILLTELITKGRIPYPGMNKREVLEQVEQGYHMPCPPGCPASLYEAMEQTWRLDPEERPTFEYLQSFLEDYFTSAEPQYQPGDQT
Sequence of Tyrosine-protein kinase Lyn (P07948 whole entry): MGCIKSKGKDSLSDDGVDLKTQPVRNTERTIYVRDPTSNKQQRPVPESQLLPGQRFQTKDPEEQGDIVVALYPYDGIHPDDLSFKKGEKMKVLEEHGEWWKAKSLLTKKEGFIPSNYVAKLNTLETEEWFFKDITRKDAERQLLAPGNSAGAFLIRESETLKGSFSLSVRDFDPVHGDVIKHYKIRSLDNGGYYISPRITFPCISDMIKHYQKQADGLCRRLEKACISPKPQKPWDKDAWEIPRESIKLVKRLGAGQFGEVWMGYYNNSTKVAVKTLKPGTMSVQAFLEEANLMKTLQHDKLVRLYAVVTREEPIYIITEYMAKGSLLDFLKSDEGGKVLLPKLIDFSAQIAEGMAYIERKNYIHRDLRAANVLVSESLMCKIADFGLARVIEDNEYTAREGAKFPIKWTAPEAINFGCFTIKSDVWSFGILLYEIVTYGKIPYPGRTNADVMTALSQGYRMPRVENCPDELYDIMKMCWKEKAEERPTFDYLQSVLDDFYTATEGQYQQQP
Sequence of Proto-oncogene tyrosine-protein kinase Src (P12931 2-536 limits assumed): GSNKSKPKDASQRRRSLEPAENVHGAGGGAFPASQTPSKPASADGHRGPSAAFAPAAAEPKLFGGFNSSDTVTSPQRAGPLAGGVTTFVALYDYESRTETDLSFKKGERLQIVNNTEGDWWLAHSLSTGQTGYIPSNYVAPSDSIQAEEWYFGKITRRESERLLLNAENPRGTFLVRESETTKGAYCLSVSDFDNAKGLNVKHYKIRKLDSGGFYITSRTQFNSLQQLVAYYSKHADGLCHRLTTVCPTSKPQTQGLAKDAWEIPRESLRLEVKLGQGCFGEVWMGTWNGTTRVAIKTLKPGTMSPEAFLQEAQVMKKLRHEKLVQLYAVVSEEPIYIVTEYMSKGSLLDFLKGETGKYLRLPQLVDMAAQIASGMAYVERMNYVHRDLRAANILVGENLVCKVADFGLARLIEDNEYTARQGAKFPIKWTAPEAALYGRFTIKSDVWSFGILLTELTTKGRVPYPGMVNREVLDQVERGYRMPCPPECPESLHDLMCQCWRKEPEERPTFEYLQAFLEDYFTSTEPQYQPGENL
Sequence of Tyrosine-protein kinase CSK (P41240 whole entry): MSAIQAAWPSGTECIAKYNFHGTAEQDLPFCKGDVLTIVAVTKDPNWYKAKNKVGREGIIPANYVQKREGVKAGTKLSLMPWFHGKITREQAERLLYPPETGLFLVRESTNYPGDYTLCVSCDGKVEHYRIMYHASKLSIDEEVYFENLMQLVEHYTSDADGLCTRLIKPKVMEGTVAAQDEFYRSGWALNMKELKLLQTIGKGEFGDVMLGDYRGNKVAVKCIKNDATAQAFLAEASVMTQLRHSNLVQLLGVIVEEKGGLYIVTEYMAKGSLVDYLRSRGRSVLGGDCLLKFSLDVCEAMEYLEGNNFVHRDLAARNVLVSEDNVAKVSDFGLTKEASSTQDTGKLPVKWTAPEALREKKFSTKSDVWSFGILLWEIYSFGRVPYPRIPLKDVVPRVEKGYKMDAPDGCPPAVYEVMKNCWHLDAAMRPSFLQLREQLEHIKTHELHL

Consider `CC1(C(=O)N2CCO[C@@H](c3nc(-c4ccc(C(=O)Nc5cc(C(F)(F)F)ccn5)cc4F)c4c(N)nccn34)C2)CCC1`, for which, in data set [1], the 50% inhibitory concentration (IC50) (usually the point on the concentration scale where inhibition reaches its midpoint) was 14 µM.
Take `COCC(=O)N1CCC[C@@H](c2nc(-c3ccc(C(=O)Nc4cc(C(F)(F)F)ccn4)cc3F)c3c(N)nccn23)C1`: the IC50 is 0.2 to 0.22 nM in [2]; 13 nM in data set [3]; 4.5 µM in data set [1]; 9 nM in data set [4]; 20 nM in [6]; 261 nM in data set [8]. Besides, the IC50 in [10] worked out at 71 nM; in [12], 28 nM; in data set [14], 151 nM; in data set [16], 188 nM; in data set [18] it was 11 nM; in data set [20] it was 74 nM. The 50% inhibitory concentration (IC50) in data set [22] came out at 60 nM; in data set [24], 55 nM; in data set [26], 19 nM; in [28], 63 nM; in data set [30], 45 nM; in data set [32] it was 37 nM. Further, the Ratio IC50 in data set [5] came out at 39; in data set [7] it was 93; in data set [9], 1180; in data set [11] it was 322; in [13], 127; in data set [15], 687. In addition, the Ratio IC50 was found to be 853 in data set [17]; 51 in data set [19]; 335 in [21]; 273 in [23]; 251 in [25]; 86 in data set [27]. The Ratio IC50 worked out at 287 in data set [29], 203 in [31] and 167 in data set [33].
In data set [1], `CC1(C(=O)N2CC(c3nc(-c4ccc(C(=O)Nc5cc(C(F)(F)F)ccn5)cc4)c4c(N)nccn34)C2)COC1` came in with an IC50 of 0.4 µM.
For the molecule `CC(C)C(=O)N1CCC[C@@H](c2nc(-c3ccc(C(=O)Nc4cc(C(F)(F)F)ccn4)cc3F)c3c(N)nccn23)C1`, the IC50 was 0.25 to 0.3 nM in [2]; 5 nM in data set [3]; 53 nM in [4]; 83 nM in data set [6]; 1150 nM in data set [8]; 230 nM in [10]. Besides, the IC50 in data set [12] stood at 203 nM; in data set [14], 472 nM; in data set [16], 894 nM; in data set [18] it was 74 nM; in [20], 646 nM; in data set [22] it was 350 nM. Also, the IC50 in [24] came to 265 nM; in data set [26], 84 nM; in data set [28], 378 nM; in data set [30] it was 132 nM; in [32], 189 nM.
As to `C[C@H]1CO[C@@H](c2nc(-c3ccc(C(=O)Nc4cc(C(F)(F)F)ccn4)cc3F)c3c(N)nccn23)CN1C(=O)C1CC1`, the clearance (usually the rate of elimination divided by the concentration) in [34] amounted to 4.2 mL/min/kg; in data set [37], 1.6 mL/min/kg. For the same molecule, the figures for the half-life in data set [35] and in data set [38] were 234 min and 528 min, respectively. The bioavailability (commonly the share of a dose that reaches the circulation, judged against a reference dose that is usually intravenous) in [36] worked out at 40%; in [39], 88%.
Consider `COCCC(=O)N1CCSC(c2nc(-c3ccc(C(=O)Nc4cc(C(F)(F)F)ccn4)cc3)c3c(N)nccn23)C1` (centres undefined), for which the IC50 in [1] came to 1.8 µM.

Values taken from ChEMBL document CHEMBL4052776, “Discovery of 3-morpholino-imidazole[1,5-a]pyrazine BTK inhibitors for rheumatoid arthritis” (Bioorg Med Chem Lett, 2017).
